According to the NIST ThermoML archive (doi:10.1016/j.jct.2019.02.011):

Assay: xn = mol fraction of the nth substance listed
Details: Liquid, Vibrating tube method

COC(=O)OC [dimethyl carbonate] + CO
mass density [kg/m3]
Details	100 kPa	5000 kPa	10000 kPa	15000 kPa	20000 kPa	25000 kPa	30000 kPa	35000 kPa	40000 kPa
298.15 K, x1 = 0.0253	–	–	–	–	–	822.44	826.09	829.61	832.77
298.15 K, x1 = 0.0503	–	–	–	–	–	836.02	839.68	843.21	846.39
298.15 K, x1 = 0.0745	–	–	–	–	–	848.53	852.21	855.74	858.95
298.15 K, x1 = 0.101	–	–	–	–	–	861.5	865.23	868.78	872.01
298.15 K, x1 = 0.1502	–	–	–	–	–	883.85	887.6	891.17	894.43
298.15 K, x1 = 0.2059	–	–	–	–	–	906.93	910.69	914.23	917.53
298.15 K, x1 = 0.25	–	–	–	–	–	923.6	927.38	930.92	934.25
298.15 K, x1 = 0.3004	–	–	–	–	–	941.13	944.97	948.53	951.89
298.15 K, x1 = 0.3426	–	–	–	–	–	954.69	958.54	962.11	965.49
298.15 K, x1 = 0.3984	–	–	–	–	–	971.23	975.08	978.67	982.08
298.15 K, x1 = 0.4514	–	–	–	–	–	985.66	989.52	993.12	996.55
298.15 K, x1 = 0.5054	–	–	–	–	–	999.17	1003.04	1006.64	1010.1
298.15 K, x1 = 0.5509	–	–	–	–	1005.74	1009.72	1013.59	1017.21	1020.68
298.15 K, x1 = 0.6002	–	–	–	–	1016.28	1020.27	1024.16	1027.78	1031.27
298.15 K, x1 = 0.6469	–	–	–	–	1025.6	1029.6	1033.49	1037.12	1040.63
298.15 K, x1 = 0.6993	–	–	–	–	1035.37	1039.38	1043.27	1046.86	1050.38
298.15 K, x1 = 0.7496	–	–	–	–	1044.11	1048.12	1052.02	1055.62	1059.15
298.15 K, x1 = 0.799	–	–	–	–	1052.15	1056.12	1060.03	1063.63	1067.18
298.15 K, x1 = 0.837	–	–	–	–	1058.02	1061.99	1065.9	1069.51	1073.07
298.15 K, x1 = 0.9093	–	–	–	–	1068.61	1072.59	1076.46	1080.07	1083.65
298.15 K, x1 = 0.9239	–	–	–	–	1070.65	1074.63	1078.5	1082.11	1085.7
298.15 K, x1 = 0.9575	–	–	–	–	1075.22	1079.21	1083.09	1086.7	1090.29
298.15 K, x1 = 0.9861	–	–	–	–	1079.06	1083.05	1086.92	1090.54	1094.14
298.15 K, x1 = 1	–	–	–	–	1080.9	1084.89	1088.82	1092.44	1096.04
303.15 K, x1 = 0.0253	796.3	801.03	805.57	810.1	814.43	818.36	822.05	825.6	829
303.15 K, x1 = 0.0503	809.73	814.5	819.05	823.59	827.93	831.86	835.56	839.12	842.54
303.15 K, x1 = 0.0745	822.09	826.87	831.44	835.97	840.32	844.26	848.02	851.58	855.01
303.15 K, x1 = 0.101	834.96	839.75	844.32	848.86	853.22	857.21	860.97	864.54	867.99
303.15 K, x1 = 0.1502	857.02	861.81	866.4	870.99	875.37	879.38	883.14	886.72	890.21
303.15 K, x1 = 0.2059	879.85	884.65	889.26	893.85	898.26	902.32	906.14	909.73	913.3
303.15 K, x1 = 0.25	896.36	901.21	905.83	910.43	914.79	918.87	922.69	926.34	929.93
303.15 K, x1 = 0.3004	913.71	918.57	923.21	927.81	932.19	936.27	940.09	943.76	947.37
303.15 K, x1 = 0.3426	927.12	931.98	936.63	941.23	945.62	949.71	953.54	957.21	960.84
303.15 K, x1 = 0.3984	943.53	948.4	953.06	957.62	962.02	966.12	969.95	973.63	977.28
303.15 K, x1 = 0.4514	957.9	962.78	967.4	971.96	976.32	980.43	984.26	987.95	991.62
303.15 K, x1 = 0.5054	971.35	976.23	980.81	985.37	989.75	993.91	997.75	1001.4	1005.09
303.15 K, x1 = 0.5509	981.85	986.74	991.33	995.89	1000.23	1004.39	1008.28	1011.94	1015.64
303.15 K, x1 = 0.6002	992.37	997.25	1001.85	1006.41	1010.76	1014.93	1018.82	1022.49	1026.2
303.15 K, x1 = 0.6469	1001.6	1006.49	1011.1	1015.61	1019.97	1024.14	1028.04	1031.7	1035.43
303.15 K, x1 = 0.6993	1011.29	1016.13	1020.75	1025.26	1029.62	1033.8	1037.7	1041.37	1045.11
303.15 K, x1 = 0.7496	1019.99	1024.84	1029.41	1033.93	1038.25	1042.43	1046.33	1050.01	1053.76
303.15 K, x1 = 0.799	1028.01	1032.86	1037.44	1041.96	1046.28	1050.47	1054.37	1058.05	1061.82
303.15 K, x1 = 0.837	1033.85	1038.71	1043.24	1047.76	1052.09	1056.23	1060.13	1063.82	1067.59
303.15 K, x1 = 0.9093	1044.36	1049.21	1053.76	1058.22	1062.51	1066.71	1070.62	1074.26	1078.04
303.15 K, x1 = 0.9239	1046.39	1051.25	1055.79	1060.26	1064.55	1068.75	1072.65	1076.3	1080.08
303.15 K, x1 = 0.9575	1050.95	1055.81	1060.36	1064.83	1069.12	1073.32	1077.23	1080.88	1084.67
303.15 K, x1 = 0.9861	1054.77	1059.63	1064.18	1068.65	1072.95	1077.15	1081.06	1084.71	1088.51
303.15 K, x1 = 1	1056.61	1061.47	1066.02	1070.49	1074.79	1078.99	1082.9	1086.6	1090.4
308.15 K, x1 = 0.0253	791.22	795.98	800.77	805.37	809.72	814	817.9	821.58	825.25
308.15 K, x1 = 0.0503	804.54	809.3	814.1	818.7	823.06	827.34	831.25	834.92	838.6
308.15 K, x1 = 0.0745	816.8	821.56	826.37	831.02	835.38	839.68	843.59	847.26	850.9
308.15 K, x1 = 0.101	829.61	834.41	839.23	843.89	848.26	852.56	856.52	860.19	863.84
308.15 K, x1 = 0.1502	851.5	856.36	861.2	865.86	870.28	874.59	878.57	882.29	885.94
308.15 K, x1 = 0.2059	874.17	879.02	883.88	888.55	892.98	897.3	901.3	905.01	908.67
308.15 K, x1 = 0.25	890.57	895.46	900.33	905.01	909.44	913.77	917.78	921.49	925.16
308.15 K, x1 = 0.3004	907.81	912.71	917.59	922.27	926.71	931.05	935.06	938.77	942.45
308.15 K, x1 = 0.3426	921.16	926.05	930.95	935.63	940.07	944.37	948.39	952.1	955.78
308.15 K, x1 = 0.3984	937.46	942.41	947.31	952	956.44	960.75	964.78	968.49	972.13
308.15 K, x1 = 0.4514	951.72	956.66	961.58	966.27	970.72	975.04	979.08	982.78	986.43
308.15 K, x1 = 0.5054	965.11	970.05	974.93	979.62	984.08	988.4	992.45	996.15	999.81
308.15 K, x1 = 0.5509	975.56	980.5	985.39	990.08	994.54	998.87	1002.92	1006.62	1010.28
308.15 K, x1 = 0.6002	986.01	990.95	995.85	1000.49	1004.95	1009.29	1013.4	1017.09	1020.76
308.15 K, x1 = 0.6469	995.19	1000.13	1005.03	1009.68	1014.14	1018.48	1022.55	1026.24	1029.87
308.15 K, x1 = 0.6993	1004.82	1009.76	1014.62	1019.27	1023.74	1028.03	1032.11	1035.8	1039.42
308.15 K, x1 = 0.7496	1013.47	1018.4	1023.27	1027.93	1032.35	1036.65	1040.72	1044.41	1048.05
308.15 K, x1 = 0.799	1021.43	1026.37	1031.19	1035.85	1040.27	1044.57	1048.66	1052.34	1055.98
308.15 K, x1 = 0.837	1027.27	1032.2	1037.04	1041.64	1046.06	1050.37	1054.46	1058.14	1061.73
308.15 K, x1 = 0.9093	1037.72	1042.65	1047.49	1052.1	1056.52	1060.79	1064.88	1068.56	1072.16
308.15 K, x1 = 0.9239	1039.75	1044.68	1049.52	1054.13	1058.56	1062.82	1066.87	1070.55	1074.15
308.15 K, x1 = 0.9575	1044.31	1049.24	1054.08	1058.69	1063.12	1067.39	1071.43	1075.12	1078.72
308.15 K, x1 = 0.9861	1048.07	1053	1057.85	1062.46	1066.89	1071.16	1075.26	1078.94	1082.54
308.15 K, x1 = 1	1049.91	1054.84	1059.69	1064.3	1068.73	1073	1077.1	1080.78	1084.38
